Substitutions are numbered along the chain they refer to.
Legend:
Assay in all cases: Steady-state quenching of COX intrinsic fluorescence (apo-protein)
Format in all cases: binding, murine
mCOX-2^V349I = target: T1, mCOX-2^V349I (Mus musculus, UniProt Q05769, V335I)
T1 construct: made in house; host or cells: Sf9 insect cells (baculovirus, pVL1393)
T1 sequence (Q05769 18-604 V335I): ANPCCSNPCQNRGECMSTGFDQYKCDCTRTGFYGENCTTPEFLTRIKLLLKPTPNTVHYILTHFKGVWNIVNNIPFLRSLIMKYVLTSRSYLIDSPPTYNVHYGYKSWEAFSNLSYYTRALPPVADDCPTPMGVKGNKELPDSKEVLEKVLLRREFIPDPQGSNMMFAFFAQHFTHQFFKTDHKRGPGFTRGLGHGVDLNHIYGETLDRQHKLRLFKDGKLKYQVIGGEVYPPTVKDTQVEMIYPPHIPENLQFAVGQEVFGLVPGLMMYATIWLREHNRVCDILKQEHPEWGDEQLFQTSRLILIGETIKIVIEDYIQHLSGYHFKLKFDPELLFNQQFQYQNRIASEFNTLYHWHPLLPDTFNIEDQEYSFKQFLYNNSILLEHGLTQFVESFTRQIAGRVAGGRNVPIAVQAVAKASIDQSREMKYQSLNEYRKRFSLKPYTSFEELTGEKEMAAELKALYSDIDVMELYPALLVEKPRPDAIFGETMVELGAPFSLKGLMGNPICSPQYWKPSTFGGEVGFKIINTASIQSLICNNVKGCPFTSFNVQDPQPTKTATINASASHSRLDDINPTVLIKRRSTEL
Description: (§1) Steady-state measurements were performed at 37° C. in a 3.5 ml fluorescence cuvette with continuous stirring. […] Data were collected over 240 or 360 seconds with 2-second integration times. The reversibility of quenching was analyzed in the same manner, with subsequent addition of 50 μM AA as competitor. The ligands were dissolved in DMSO before further dilution into buffer. The organic component in the buffer was below 0.4%.
(§2) This assay provided a method to directly monitor the binding of INDO and DM-INDO to COXs. Various concentrations of INDO and DM-INDO were added to apo-proteins and the rate of fluorescence decrease was monitored over time. After the mixture reached equilibrium, 50 μM of AA was added as competitor to monitor the reversibility of binding. The kinetic data for quenching were analyzed in the same manner as those for inhibition. For clarity, the equilibrium constant for the first step of fluorescence quenching is referred to as Kd, and k2 and k−2 from the second step of quenching are represented by k′2 and k′−2, respectively.

mCOX-2^V349L = target: T2, mCOX-2^V349L (Mus musculus, UniProt Q05769, V335L)
T2 construct: made in house; host or cells: Sf9 insect cells (baculovirus, pVL1393)
T2 sequence (Q05769 18-604 V335L): T1 sequence (Q05769 18-604 V335I) with I318L
Description: as §1, §2

wild type mCOX-2 = target: T3, wild type mCOX-2 (Mus musculus, UniProt Q05769)
T3 construct: made in house; host or cells: Sf9 insect cells (baculovirus, pVL1393)
T3 sequence (Q05769 18-604): T1 sequence (Q05769 18-604 V335I) with I318V
Description: as §1, §2

[1] = fluorescence increase from competition with 50 μM AA

In the case of `COc1ccc2c(c1)c(CC(=O)O)cn2C(=O)c1ccc(Cl)cc1` [DM-INDO, 2-Des-methylindomethacin], the “k′−2^b” value (mCOX-2^V349I; [1]) is reported as 0.005 ± 0.001 s⁻¹, the Kd (mCOX-2^V349I; fluorescence quenching) is reported as 12 ± 5 µM and the “k′2” value (mCOX-2^V349I; fluorescence quenching) is reported as 0.09 ± 0.01 s⁻¹. For the same molecule, the “k′−2” value (mCOX-2^V349I; fluorescence quenching (decay)) was 0.003 ± 0.002 s⁻¹, the “k′−2^b” value (mCOX-2^V349L; [1]) was 0.006 ± 0.001 s⁻¹ and the Kd (mCOX-2^V349L; fluorescence quenching) was 34 ± 19 µM. For the same molecule, the “k′2” value (mCOX-2^V349L; fluorescence quenching) was 0.05 ± 0.01 s⁻¹, the “k′−2” value (mCOX-2^V349L; fluorescence quenching (decay)) was 0.003 ± 0.002 s⁻¹ and the “k′−2^b” value (wild type mCOX-2; [1]) was 0.007 ± 0.001 s⁻¹. For the same molecule, the Kd (wild type mCOX-2; fluorescence quenching) was 16 ± 9 µM, the “k′2” value (wild type mCOX-2; fluorescence quenching) was 0.16 ± 0.04 s⁻¹ and the “k′−2” value (wild type mCOX-2; fluorescence quenching (decay)) was 0.006 ± 0.002 s⁻¹.

Reference: US8168656B2, “Indoleacetic acid and indenacetic acid derivatives as therapeutic agents with reduced gastrointestinal toxicity” (Vanderbilt University, priority 2009, dated 2012)
